According to PMC12040169 (PLOS Biology, 2025):

Assay: in vitro
Details: human, hela cells, % viability

Compound	viability at 28.5 h, 10 µM [%]	viability at 28.5 h, 10 µM (bulk resorufin, single well) [%]
Brc1ccc(CN2CCN3CCCC3C2C2CCCCC2)o1 (stereo not shown) [CBK021456]	82.6	–
CN(C)c1oc(-c2ccccc2)nc1S(=O)(=O)c1ccccc1 [CBK021477]	105	–
O=C(Cc1ccccc1)N/N=C/C1CC2CC1CC2C(F)(F)F (stereo not shown) [CBK021488]	93	–
O=C(O)c1snnc1-c1ccccc1 [CBK021545]	90.9	–
O=S1(=O)CCC(Sc2nncc3ccccc23)C1 (stereo not shown) [CBK021586]	92.2	–
CC1=NNC(=S)NC(C)(C)C1 [CBK021597]	120	–
Cc1c(C#N)c(=O)ncn1Cc1ccncc1 [CBK021603]	102	–
O=C(C/C=N/OCc1ccccc1)c1sccc1Cl [CBK021611]	96	–
O=C1N(C2CCCCC2)CC2C(c3ccccc3)ONC12O (stereo not shown) [CBK021700]	97	–
c1ccc(SCCCSc2ccccn2)cc1 [CBK021704]	87	–
CCCCCSc1c(C#N)nc(N2CCOCC2)c2c1CC(C)(C)OC2 [CBK021748]	92.1	–
OC1CCN(c2ccc(-c3ccccc3)nn2)CC1 [CBK021753]	83.9	–
O=C(c1ccccc1)n1c(=S)nc2n(c1=S)CCN2 [CBK021794]	84.3	–
O=C1CC(C(=O)O)CN(c2cccs2)C1 (stereo not shown) [CBK021796]	92.8	–
NC1(C(F)(F)F)Oc2cc(Cl)c(Cl)cc2O1 [CBK021805]	88.5	–
O=C(O)c1ccc2c(c1)C(=O)N(C1=NCCS1)C2=O [CBK021809]	89.6	–
CSc1nc(C#N)c(N)c(SC2C=CCCC2)n1 (stereo not shown) [CBK021817]	89.4	–
c1cn(CC2(Cn3ccnc3)COC2)cn1 [CBK021839]	108	–
CC(=O)Nc1ccc(/C(C)=N/Nc2nc(N3CCCC3)nc(N3CCCC3)n2)cc1 [CBK021877]	89.3	–
CC(=O)O/C(N)=N/c1nonc1N [CBK021885]	105	–
c1csc(C2NN=C3C4CCN(CC4)C32)c1 (stereo not shown) [CBK021915]	91.5	–
COC(=O)c1sccc1N1C(=O)CSCC1=O [CBK021934]	103	–

Compound	viability at 28.5 h, 10 µM [%]	viability at 28.5 h, 10 µM (bulk resorufin, single well) [%]
CNC(=O)C(NC(=S)NC(=O)c1ccc(F)cc1)C(C)(C)C (stereo not shown) [CBK021945]	109	–
C/C(=N\Nc1cccc2cccnc12)C(C)(C)C [CBK021957]	113	–
CCSc1nn(CC)c2oc3c(c2c1=S)CC(C)(C)OC3 [CBK021960]	105	–
CC1(C)[C@H]2CC[C@]1(C)[C@@H](OCCNc1ccccc1)C2 [CBK021967]	87.8	–
FC(F)(F)c1ccc(-c2nnc(C3CC3)o2)cc1 [CBK021992]	86.7	–
O=S(=O)(CCOc1ccccc1)N(CCOc1ccccc1)C1CCCCC1 [CBK022003]	103	–
CC(=O)c1cc(CCCO)n(Cc2ccco2)c1C [CBK022013]	115	–
S=c1[nH]nc(Cn2ccc(-c3ccccc3)n2)o1 [CBK022019]	108	–
COCCNc1cccc(Cn2c(=O)n(C)c3c2c(=O)nc(OC)n3C)c1 [CBK022052]	84.3	–
Nc1ncccc1OCCOc1cccnc1N [CBK022067]	89.3	–
CCCCN(CCCC)S(=O)(=O)c1nc2nc(C)cc(C)n2n1 [CBK022076]	79.7	–
CSc1nc2ncnc(N3CCC(O)CC3)c2s1 [CBK022082]	84.4	–
CC(=O)c1nnnn1C(C)(C)Cc1ccccc1 [CBK022088]	91.3	–
CCCC(=O)CCOC(=O)C1=C(C)OC2C1Nc1cc(F)c(F)cc1N2CC (stereo not shown) [CBK022099]	93.4	–
O=C(N/N=C/c1ccc[nH]1)C1CC1c1ccccc1 (stereo not shown) [CBK022120]	98.8	–
CCOC(=O)c1cnc(O/N=C(\N)c2ccc(C(C)(C)C)cc2)nc1C(F)(F)F [CBK022142]	103	–
Cc1nc(NC(CC(C)C)C(=O)O)c2nc(C)oc2n1 (stereo not shown) [CBK022157]	115	–
Cc1ccc(CCP(=O)(O)CN2CCOCC2)cn1 [CBK022176]	109	–
Cc1cccc(NC(=S)N/N=C/c2sccc2C)c1 [CBK022228]	104	–
C/C(=N\NC(=O)CC1(C)OCCO1)c1oc(C)cc1C [CBK022234]	99.1	–
CC(Oc1cccc(Cl)c1)n1cnnc1 (stereo not shown) [CBK022246]	100	–
Cc1nn(Cc2cccc(C(N)=O)c2)c(C)c1Br [CBK022255]	86.9	–

Compound	viability at 28.5 h, 10 µM [%]	viability at 28.5 h, 10 µM (bulk resorufin, single well) [%]
CCOc1oc2cc(O)ccc2c1C(=O)CSC1CCCCC1 [CBK022262]	87.1	–
COc1cccc(C(=O)NCC(C)(C)SCc2ccc(F)cc2)c1 [CBK022322]	111	–
Brc1n[nH]c2nc(NCc3ccco3)ncc12 [CBK022327]	91.6	–
Cc1ccc2oc(=O)cc(N/N=C(\Cl)C(N)=S)c2c1 [CBK022357]	85.8	–
O=C(CC1(C(F)(F)F)NCCN1)c1ccco1 [CBK022373]	82.6	–
CCOC(=O)CN/C(=N/O)c1c(Cl)cccc1Cl [CBK022374]	99.6	–
CN(C)S(=O)(=O)NCCc1ccc(S(N)(=O)=O)cc1 [CBK022388]	99.5	–
Cc1ccc2c(c1)C(C)(c1ccccc1)CC(C)(C)N2C(=O)CSc1nncn1C (stereo not shown) [CBK022397]	98.8	–
COc1ccc2ccccc2c1[S+]([O-])NC1CCCCC1 (stereo not shown) [CBK022400]	80.7	–
C=CCn1c(SCC(=O)Nc2ccccn2)nnc1-c1ccc(Br)cc1 [CBK022413]	96.3	–
COc1cccc(C(=O)Nc2ccc(Br)cc2C(=O)O)c1 [CBK022487]	98.7	–
Clc1cncc(N2CCNCC2)c1 [CBK022556F]	–	117
CS(=O)(=O)N1CC2(CCN(C(=O)[C@@H]3CNC[C@H]3c3ccccc3)CC2)c2ccccc21 [CBK022572]	104	–
c1ccc(OCCOc2ccc(N3CCNCC3)nn2)cc1 [CBK022577F]	109	–
c1ccc2c(c1)NCC21CCNCC1 [CBK022583]	101	–
O=C1OC[C@@H](c2ccccc2)N1C(=O)[C@@H]1CN(Cc2ccccc2)C[C@H]1c1cc2ccccc2o1 [CBK022599C]	111	–
CN(C)c1ccccc1C1(O)CN2CCC1CC2 (stereo not shown) [CBK022620]	86.8	–
CC(C)CN1CC2(CCN(C(=O)OCc3ccccc3)CC2)c2ccccc21 [CBK022626C]	106	–
O=C(OCc1ccccc1)N1CCC2(CC1)CN(CCO)c1ccccc12 [CBK022627]	105	–
CCN(CC)C(=O)c1ccc(N)cc1C [CBK022686C]	93.5	–
CC1=CC(=O)OC1(O)c1ccc(Br)cc1 (stereo not shown) [CBK022687]	91.6	–
O=C(O)C(CCCN1CCCC1)(c1ccccc1)c1ccccc1 [CBK022695G]	81.7	–

Compound	viability at 28.5 h, 10 µM [%]	viability at 28.5 h, 10 µM (bulk resorufin, single well) [%]
C[N+]1(CC(=O)c2ccccc2)C2CCC1CC(OC(=O)C(O)c1ccccc1)C2 (stereo not shown) [CBK022712C]	120	–
CCCC/N=C(\NS(=O)(=O)c1ccc(C)cc1)OCC [CBK022731]	106	–
NC(=O)N/N=C/COc1cccc(C(F)(F)F)c1 [CBK022736]	102	–
CCN(CC)CCOc1cc(=O)oc2ccccc12 [CBK022747C]	105	–
Cc1ccnc(Nc2nc3ccccc3o2)n1 [CBK022772]	87.5	–
CO/N=C\c1c(CO)cnc(C)c1O [CBK022776]	98.4	–
CCN(CC)C(=O)C1CN2CCc3cc(OC)c(OC)cc3C2CC1OC(C)=O (stereo not shown) [CBK022778]	110	–
OC(c1ccc2c(c1)OCO2)C1CCCCC1N1CCCCCC1 (stereo not shown) [CBK022779C]	100	–
CCOC(=O)N1CCN(CC2CCCCN2)CC1 (stereo not shown) [CBK022780G]	83.4	–
COC(=O)C(C)CN1CC2CCC(CC2)C1 (stereo not shown) [CBK022785C]	106	–
COc1ccc(Nc2cc(Cl)ccc2C(=O)O)cn1 [CBK022801]	91.5	–
Cc1cc(=[N+]2CCCCC2)cc(C)o1 [CBK022824I]	96.7	–
CC(C)(C)CC(C)(C)Nc1nc(N)nc(N)n1 [CBK022832]	101	–
NC(=O)CC[n+]1ccc2ccccc2c1 [CBK022857C]	110	–
O=C(NC1(CN2CCCCC2)CCCCC1)NS(=O)(=O)c1ccc(Cl)cc1 [CBK022858]	94.4	–
O=C(Nc1ncnc2nc[nH]c12)NC1CCCCC1 [CBK022860]	97.7	–
Sc1nnnn1-c1ccccc1 [CBK022881G]	99.9	–
O=C(Oc1cccc2cnccc12)c1ccccc1 [CBK022889C]	105	–
CC(=O)NC(=O)c1cccc(Br)c1 [CBK022890]	99.3	–
FC(F)(F)c1cccc(CC2CSC(=S)N2)c1 (stereo not shown) [CBK022895]	92.2	–
CCC(C(=O)c1c[nH]c2ccc(OC)cc12)N(C)C (stereo not shown) [CBK022923]	–	96
CCCC(=O)C1(c2ccccc2)CCNCC1 [CBK022936C]	–	89.3
